Laboratory results taken from article PMC9147192, “Small Molecule Arranged Thermal Proximity Coaggregation (smarTPCA)—A Novel Approach to Characterize Protein–Protein Interactions in Living Cells by Similar Isothermal Dose–Responses” (International Journal of Molecular Sciences, 2022).

Columns and labels:
MAPK3 [1] = molecular target: T1, MAPK3 (Homo sapiens, UniProt P27361); assay: TPP-TR in living HL-60 cells; type: cell-based; details: 20 μM, single set (no replicates)
T1 construct: endogenous in cells; host or cells: HL-60 (ATCC CCL-240)
T1 sequence (P27361 whole entry): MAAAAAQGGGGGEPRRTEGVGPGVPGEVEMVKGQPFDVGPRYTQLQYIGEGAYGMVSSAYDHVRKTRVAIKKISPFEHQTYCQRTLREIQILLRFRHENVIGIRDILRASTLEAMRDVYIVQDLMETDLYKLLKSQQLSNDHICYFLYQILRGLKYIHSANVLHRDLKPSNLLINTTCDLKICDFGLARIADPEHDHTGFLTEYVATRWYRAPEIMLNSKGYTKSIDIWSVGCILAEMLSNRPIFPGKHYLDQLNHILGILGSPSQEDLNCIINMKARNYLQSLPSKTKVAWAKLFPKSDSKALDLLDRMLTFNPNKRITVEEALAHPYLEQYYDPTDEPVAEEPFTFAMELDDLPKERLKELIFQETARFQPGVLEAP
Protocol: (§1) HL-60 cells (ATCC No. CCL-240) were expanded to about […] in 80 mL cell culture medium (RPMI-1640 supplemented with 10% (v/v) FBS, 1% (v/v) penicillin-streptomycin and 1% (v/v) L-glutamine solution) and divided into four aliquots (20 mL each, 25 million cells per flask). […] The same volume of DMSO was added to the remaining aliquot serving as the vehicle (DMSO) control. After incubation (1 h, 37 °C, 5% CO2, in cell culture CO2 incubator), the cell suspensions were transferred into 50 mL conical tubes, cell number and viability were determined, and after centrifugation (300 relative centrifugal force (rcf), 3 min, room temperature (r.t.)), the supernatants were completely removed and discarded. The cells were washed using 20 mL Dulbecco’s phosphate-buffered saline (PBS), respectively, by resuspension and centrifugation (300 rcf, 3 min, r.t.). After the complete removal of the supernatants, the cells were transferred into pre-weighed 2 mL Eppendorf tubes using 0.5 mL PBS (r.t.), respectively, for resuspending. After centrifugation (300 rcf, 3 min, r.t.) and removing as much as possible of the supernatants, the cell wet weights were determined.
(§2) The suspensions were shortly centrifuged (1 s or less) using a benchtop centrifuge that was equipped with an inset for PCR tubes to release trapped air and to achieve an even liquid level without pelleting the cells. The 100 µL cell suspensions were then temperature treated by a 7 min pre-incubation at r.t., a 3 min incubation at the following different temperatures in the PCR cycler (DNA Engine Tetrad 2, lid temperature 70 °C, gradient block 1: 36–55 °C, gradient block 2: 48–67 °C), and a 3 min post-incubation at r.t. in a metal heating block for uniform heat dissipation.
(§3) The cells were lysed by four freeze/thaw cycles consisting of thawing the samples (in a heat block set to 25 °C and shaking at 1250 rpm) accompanied by mixing them several times by inversion and then shock freezing them again in liquid nitrogen. The resulting lysates were kept cold (on ice or 4 °C) from then on. After centrifugation (20,000 rcf, 30 min, 4 °C) to pellet the cell debris together with precipitated and aggregated proteins, the supernatants were recovered and, after determining the total protein concentration (Pierce 660 nm Protein Assay, BSA as standard), the resulting cell extracts containing the fraction of soluble, non-denatured proteins were shock frozen in liquid nitrogen and stored at −80 °C.
(§4) For each sample set comprising ten temperature range samples, the same volume of the cell extracts containing the fraction of soluble, non-denatured proteins was used for further analysis. Volume calculation for 30 µg total protein was performed as described for SDS-PAGE and immunoblotting. The calculated volume was respectively transferred into 0.5 mL LoBind Eppendorf tubes and evaporated to dryness using vacuum centrifugation (SpeedVac concentrator, Eppendorf, Hamburg, Germany). The dried proteins were each reconstituted in 10 µL of SDS sample buffer (containing DTT) and incubated for 30 min at 50 °C with shaking (700 rpm). 1.111 µL 1 M iodoacetamide (IAA) was added to each sample (final 100 mM IAA), then the samples were mixed and incubated for 30 min at r.t. in the dark. Sample quality was controlled by SDS-PAGE/silver staining using 0.926 µL of each sample (2.5 µg on average for the two lowest temperature samples; 26-well 4–12% Bis-Tris polyacrylamide gels, Novex NuPAGE, Thermo Scientific; 15 min at 50 V, about 1.5 h at 200 V using the recommended MOPS running buffer).

MAPK3 [2] = molecular target: T1, MAPK3; assay: TPP-CCR in living HL-60 cells; type: cell-based
From the text: Therefore, we performed TPP with compound concentration range (TPP-CCR) experiments according to published procedures. In brief, after preparing tryptic peptides from the non-denatured protein fractions (used for immunoblotting in the previous sections) applying the SP3 method, the peptides were labeled using TMT10plex, coding for inhibitor concentration, and the samples belonging to a TMT set were combined, offline high-pH fractionated, and analyzed by MS.
HL-60 cells were expanded as described above for CETSA and TPP-TR to 1.25 million cells per milliliter. […] A number of 2.5 million cells in 2 mL of medium were added to each tube and incubated (1 h, 37 °C). […]
For each sample set comprising ten compound concentration range samples, a same volume of the cell extracts containing the fraction of soluble, non-denatured proteins, corresponding to an average of 5 µg total protein, was used for further analysis. The calculated volume was respectively transferred into PCR tubes of a tube strip and supplemented with SDS sample buffer without DTT and bromophenol blue (final concentrations: 7.5% glycerol, 3% SDS, 37.5 mM Tris/HCl pH 7.0) and ddH2O to a final volume of 10 µL, respectively. […]

MAPK14 = MAPK14 (Homo sapiens, UniProt Q16539); assay: TPP-TR in living HL-60 cells; type: cell-based; details: 20 μM, single set (no replicates)
Chain of MAPK14 (Q16539 whole entry): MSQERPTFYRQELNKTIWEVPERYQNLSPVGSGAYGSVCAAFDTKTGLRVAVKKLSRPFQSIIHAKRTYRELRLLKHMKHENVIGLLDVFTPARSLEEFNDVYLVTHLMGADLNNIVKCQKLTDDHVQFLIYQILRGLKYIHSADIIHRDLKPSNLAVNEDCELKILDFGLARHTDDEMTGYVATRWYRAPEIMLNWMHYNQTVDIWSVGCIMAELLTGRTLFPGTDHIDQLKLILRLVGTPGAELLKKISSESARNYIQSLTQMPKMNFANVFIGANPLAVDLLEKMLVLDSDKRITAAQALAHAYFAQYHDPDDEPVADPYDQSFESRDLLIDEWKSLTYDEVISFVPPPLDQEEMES
Protocol: as §1, §2, §3, §4

MRPS34 = MRPS34 (Homo sapiens, UniProt P82930); assay: TPP-CCR in living HL-60 cells
[3] = living HL-60 cells, […] °C, TMT-MS

Cc1cnc(Nc2ccc(F)cc2Cl)nc1-c1c[nH]c(C(=O)N[C@H](CO)c2cccc(Cl)c2)c1 [ERK 11e]
thermal stabilization in melting curves (MAPK3) (MAPK3 [1]): thermal stabilization
Hill slope (MAPK3 [2]; TPP-CCR, living cells, MAPK3): 0.59
Hill slope (MAPK3) (MAPK3 [2]; [3]): 0.59

Cn1c(NC[C@@H](N)Cc2ccccc2)nc(-c2ccncc2)c(-c2ccc3ccccc3c2)c1=O [AMG-548]
thermal stabilization in melting curves (MAPK14) (MAPK14): thermal stabilizations
EC50 (MRPS34): 60.3 nM
Hill slope (MRPS34) (MRPS34; [3]): 0.26
